Source: ChEMBL document CHEMBL1949630, “Discovery of benzodihydroisofurans as novel, potent, bioavailable and brain-penetrant prolylcarboxypeptidase inhibitors” (Bioorg Med Chem Lett, 2012)
Active and inactive are the calls of the source. No cut-off for these calls is given here.

Assays:
[1] = target: T1, Lysosomal Pro-X carboxypeptidase (Mus musculus) (UniProt Q7TMR0); test: Inhibition of mouse PrCP in qd for 2 days po dosed established diet-induced obese C57BL/6 mouse heat inactivated plasma; type: organism-based
T1 sequence (whole entry): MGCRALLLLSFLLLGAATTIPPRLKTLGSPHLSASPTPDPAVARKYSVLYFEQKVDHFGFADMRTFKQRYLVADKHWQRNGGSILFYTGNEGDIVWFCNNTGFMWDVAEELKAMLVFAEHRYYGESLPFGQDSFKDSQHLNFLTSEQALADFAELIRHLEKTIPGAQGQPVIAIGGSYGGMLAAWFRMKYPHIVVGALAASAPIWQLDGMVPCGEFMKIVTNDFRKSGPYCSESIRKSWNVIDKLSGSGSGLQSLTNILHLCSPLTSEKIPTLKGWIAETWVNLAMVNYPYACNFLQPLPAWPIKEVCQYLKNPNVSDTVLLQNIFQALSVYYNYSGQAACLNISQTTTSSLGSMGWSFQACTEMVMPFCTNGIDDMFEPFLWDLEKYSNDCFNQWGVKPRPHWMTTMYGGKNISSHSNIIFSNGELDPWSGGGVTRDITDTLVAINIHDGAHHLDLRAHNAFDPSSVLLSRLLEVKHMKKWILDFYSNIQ

[2] = target: T2, Lysosomal Pro-X carboxypeptidase (Mus musculus, UniProt Q7TMR0); test: Inhibition of mouse PrCP
T2 sequence (Q7TMR0 whole entry): T1 sequence (whole entry)

[3] = target: T2, Lysosomal Pro-X carboxypeptidase; test: Inhibition of PrCP in mouse plasma assessed as angiotensin 3 cleavage by whole serum shift assay
[4] = Fraction unbound in human plasma; type: ADME, cell-free
[5] = Fraction unbound in mouse plasma; type: ADME, cell-free
[6] = Oral bioavailability in C57BL/6 mouse at 2 mg/kg by LC/MS/MS analysis; type: ADME, organism-based; settings: in vivo
[7] = Oral bioavailability in rat at 2 mg/kg by LC/MS/MS analysis; type: ADME, organism-based; settings: in vivo
[8] = Oral bioavailability in dog at 2 mg/kg by LC/MS/MS analysis; type: ADME, organism-based, Canis lupus familiaris; settings: in vivo
[9] = Clearance in C57BL/6 mouse at 1 mg/kg, iv and 2 mg/kg, po by LC/MS/MS analysis; type: ADME, organism-based; settings: in vivo
[10] = Clearance in rat at 1 mg/kg, iv and 2 mg/kg, po by LC/MS/MS analysis; type: ADME, organism-based; settings: in vivo
[11] = Clearance in dog at 1 mg/kg, iv and 2 mg/kg, po by LC/MS/MS analysis; type: ADME, organism-based, Canis lupus familiaris; settings: in vivo
[12] = Volume of distribution at steady state in C57BL/6 mouse at 1 mg/kg, iv and 2 mg/kg, po by LC/MS/MS analysis; type: ADME, organism-based; settings: in vivo, read-out: Vdss
[13] = Volume of distribution at steady state in rat at 1 mg/kg, iv and 2 mg/kg, po by LC/MS/MS analysis; type: ADME, organism-based; settings: in vivo, read-out: Vdss
[14] = Volume of distribution at steady state in dog at 1 mg/kg, iv and 2 mg/kg, po by LC/MS/MS analysis; type: ADME, organism-based, Canis lupus familiaris; settings: in vivo, read-out: Vdss
[15] = Half life in C57BL/6 mouse at 1 mg/kg, iv and 2 mg/kg, po by LC/MS/MS analysis; type: ADME, organism-based; settings: in vivo
[16] = Half life in rat at 1 mg/kg, iv and 2 mg/kg, po by LC/MS/MS analysis; type: ADME, organism-based; settings: in vivo
[17] = Half life in dog at 1 mg/kg, iv and 2 mg/kg, po by LC/MS/MS analysis; type: ADME, organism-based, Canis lupus familiaris; settings: in vivo
[18] = tested on: Mus musculus; test: Dose normalized AUC in C57BL/6 mouse at 2 mg/kg by LC/MS/MS analysis; type: ADME, organism-based; design: dose 2 mg/kg; settings: in vivo
[19] = tested on: Rattus norvegicus; test: Dose normalized AUC in rat at 2 mg/kg by LC/MS/MS analysis; type: ADME, organism-based; design: dose 2 mg/kg; settings: in vivo
[20] = tested on: Canis familiaris; test: Dose normalized AUC in dog at 2 mg/kg by LC/MS/MS analysis; type: ADME, organism-based, Canis lupus familiaris; design: dose 2 mg/kg; settings: in vivo
[21] = Ratio of drug level in brain to plasma in wild type CF1 mouse at 3 mg/kg, po after 4 hrs; type: ADME, organism-based; design: dose 3 mg/kg, route oral; settings: brain and plasma, read-out: BPR
[22] = Ratio of drug level in brain to plasma in p-gp-/- mouse at 3 mg/kg, po after 4 hrs; type: ADME, organism-based; design: dose 3 mg/kg, route oral; settings: brain and plasma, read-out: BPR
[23] = Drug uptake in established diet-induced obese C57BL/6 mouse blood at 3 mg/kg, po qd for 2 days; type: ADME, organism-based; design: dose 3 mg/kg, route oral; settings: read-out: Drug uptake
[24] = Drug uptake in established diet-induced obese C57BL/6 mouse blood at 10 mg/kg, po qd for 2 days; type: ADME, organism-based; design: dose 10 mg/kg, route oral; settings: read-out: Drug uptake
[25] = Drug uptake in established diet-induced obese C57BL/6 mouse blood at 30 mg/kg, po qd for 2 days; type: ADME, organism-based; design: dose 30 mg/kg, route oral; settings: read-out: Drug uptake
[26] = Plasma concentration in established diet-induced obese C57BL/6 mouse at 3 mg/kg, po qd for 2 days; type: ADME, organism-based; design: dose 3 mg/kg, route oral
[27] = Plasma concentration in established diet-induced obese C57BL/6 mouse at 10 mg/kg, po qd for 2 days; type: ADME, organism-based; design: dose 10 mg/kg, route oral
[28] = Plasma concentration in established diet-induced obese C57BL/6 mouse at 30 mg/kg, po qd for 2 days; type: ADME, organism-based; design: dose 30 mg/kg, route oral
[29] = Drug uptake in established diet-induced obese C57BL/6 mouse brain at 3 mg/kg, po qd for 2 days; type: ADME, organism-based; design: dose 3 mg/kg, route oral; settings: read-out: Drug uptake
[30] = Drug uptake in established diet-induced obese C57BL/6 mouse brain at 10 mg/kg, po qd for 2 days; type: ADME, organism-based; design: dose 10 mg/kg, route oral; settings: read-out: Drug uptake
[31] = Drug uptake in established diet-induced obese C57BL/6 mouse brain at 30 mg/kg, po qd for 2 days; type: ADME, organism-based; design: dose 30 mg/kg, route oral; settings: read-out: Drug uptake
[32] = target: T1, Lysosomal Pro-X carboxypeptidase (Mus musculus); test: Inhibition of mouse PrCP in 3 mg/kg, po administered qd for 2 days established diet-induced obese C57BL/6 mouse heat inactivated plasma; type: organism-based; design: dose 3 mg/kg; settings: at 3 mg/kg
[33] = target: T1, Lysosomal Pro-X carboxypeptidase (Mus musculus); test: Inhibition of mouse PrCP in 10 mg/kg, po administered qd for 2 days established diet-induced obese C57BL/6 mouse heat inactivated plasma; type: organism-based; design: dose 10 mg/kg; settings: at 10 mg/kg
[34] = target: T1, Lysosomal Pro-X carboxypeptidase (Mus musculus); test: Inhibition of mouse PrCP in 30 mg/kg, po administered qd for 2 days established diet-induced obese C57BL/6 mouse heat inactivated plasma; type: organism-based; design: dose 30 mg/kg; settings: at 30 mg/kg
[35] = tested on: Mus musculus; test: Antiobesity activity in established diet-induced obese C57BL/6 mouse assessed as reduction of body weight at 30 mg/kg, po qd for 5 days; type: functional, organism-based; design: dose 30 mg/kg
[36] = tested on: Mus musculus; test: Antiobesity activity in PrCP knockout mouse assessed as reduction of body weight at 30 mg/kg, po qd for 5 days; type: functional, organism-based; design: dose 30 mg/kg
[37] = Plasma concentration in established diet-induced obese wild type C57BL/6 mouse at 30 mg/kg, po qd for 5 days measured on day 6; type: ADME, organism-based; design: dose 30 mg/kg, route oral
[38] = Plasma concentration in PrCP knockout mouse at 30 mg/kg, po qd for 5 days measured on day 6; type: ADME, organism-based; design: dose 30 mg/kg, route oral
[39] = Drug uptake in established diet-induced obese wild type C57BL/6 mouse brain at 30 mg/kg, po qd for 5 days measured on day 6; type: ADME, organism-based; design: dose 30 mg/kg, route oral; settings: read-out: Drug uptake
[40] = Drug uptake in PrCP knockout mouse brain at 30 mg/kg, po qd for 5 days measured on day 6; type: ADME, organism-based; design: dose 30 mg/kg, route oral; settings: read-out: Drug uptake
[41] = target: T1, Lysosomal Pro-X carboxypeptidase (Mus musculus); test: Inhibition of mouse PrCP in 30 mg/kg, po qd for 5 days established diet-induced obese wild type C57BL/6 mouse heat inactivated plasma measured on day 6; type: organism-based; design: dose 30 mg/kg; settings: at 30 mg/kg
[42] = target: T1, Lysosomal Pro-X carboxypeptidase (Mus musculus); test: Inhibition of mouse PrCP in 30 mg/kg, po qd for 5 days established diet-induced obese wild type C57BL/6 mouse heat inactivated brain homogenates measured on day 6; type: organism-based; design: dose 30 mg/kg; settings: at 30 mg/kg

For FC(F)(F)Oc1ccc(CN2CCC3(CC2)OC(c2cc(Cl)ccn2)c2ccccc23)cc1 (configuration not stated), the inhibition [1] was “Dose-dependent effect”, the IC50 [2] was 0.00018 µM and the IC50 [3] was 0.023 µM. The fraction unbound [4] was under 0.0006, the fraction unbound [5] was under 0.0006 and the bioavailability [6] was 35%. For the same molecule, the bioavailability [7] was 60%, the bioavailability [8] was 88% and the clearance [9] was 45 mL/min/kg. The clearance [10] was 11 mL/min/kg, the clearance [11] was 5.9 mL/min/kg and the Vd [12] was 20 L/kg. It also gave a Vd [13] of 5.9 L/kg, a Vd [14] of 5.5 L/kg and a half-life [15] of 6.7 h. For the same molecule, the half-life [16] was 8.9 h, the half-life [17] was 14 h and the AUC/dose [18] was 0.28 µM·kg·h/mg. It also gave an AUC/dose [19] of 1.8 µM·kg·h/mg, an AUC/dose [20] of 5 µM·kg·h/mg and a Kp at 4 h [21] of 0.94. For the same molecule, the Kp at 4 h [22] was 1.9, the concentration at 48 h [23] was 80 nM and the concentration at 48 h [24] was 280 nM. For the same molecule, the concentration at 48 h [25] was 590 nM, the concentration at 48 h [26] was 50 nM and the concentration at 48 h [27] was 240 nM. It also gave a concentration at 48 h [28] of 520 nM, a concentration at 48 h [29] of 30 nM and a concentration at 48 h [30] of 110 nM. For the same molecule, the concentration at 48 h [31] was 520 nM, the inhibition [32] was 53% and the inhibition [33] was 82%. For the same molecule, the inhibition [34] was 93%, the Activity [35] was “inactive” and the Activity [36] was “inactive”. It also gave a concentration at 120 h [37] of 1420 nM, a concentration at 120 h [38] of 1570 nM and a concentration at 120 h [39] of 690 nM. It also gave a concentration at 120 h [40] of 820 nM, an inhibition [41] of 88% and an inhibition [42] of 61%.
